Measurements as given in ChEMBL document CHEMBL1201862, “PubChem BioAssay data set” (2004).
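48-hour exposure; five concentrations; linearly interpolated endpoints. GI50 marks 50% less growth.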 Calls of active or inactive are those of the source. No stated cut-off is given here; in the data, active = GI50 up to about 1.1 µM and inactive = higher.

Experiments:
Experiment in all cases: inhibition of tumour cell growth, NCI panel, 48 h
[1] = system: OVCAR-4
[2] = system: CAKI-1
[3] = system: SK-MEL-5
[4] = system: SF-268
[5] = system: DU-145
[6] = system: NCI/ADR-RES
[7] = system: UO-31
[8] = system: 786-0
[9] = system: MDA-N
[10] = system: BT-549
[11] = system: RXF 393
[12] = system: M14
[13] = system: SK-MEL-2
[14] = system: T47D
[15] = system: ACHN
[16] = system: OVCAR-8
[17] = system: NCI-H522
[18] = system: SNB-75
[19] = system: KM12
[20] = system: MDA-MB-435

Measured: GI50

Cc1ccc([N+](=O)[O-])c2c(NCCCN(C)C)ccnc12
inactive: [1] 22.4 µM | [2] > 89.5 µM | [3] 29.6 µM | [4] > 95.9 µM | [5] > 100 µM | [6] 66.2 µM | [7] > 100 µM | [8] 44.8 µM | [9] 33.5 µM | [10] > 100 µM | [11] > 100 µM | [12] > 59.2 µM | [13] 36.6 µM | [14] > 100 µM | [15] 57 µM | [16] 98.4 µM | [17] 19.6 µM | [18] 33.7 µM | [19] 69.8 µM | [20] 21.6 µM

COc1cc(/C=C/C(=N\NC(=S)NN)c2sc(NNC(C)=O)nc2C)ccc1O
inactive: [1] > 100 µM | [2] > 100 µM | [3] > 100 µM | [4] > 100 µM | [5] > 100 µM | [6] > 100 µM | [7] > 100 µM | [8] > 100 µM | [9] > 100 µM | [10] > 100 µM | [11] > 100 µM | [12] > 100 µM | [13] > 100 µM | [14] > 100 µM | [15] > 100 µM | [16] > 100 µM | [17] > 100 µM | [18] > 100 µM | [19] 66.2 µM | [20] > 100 µM

CC(=O)N1c2ccccc2C(C)(C)OC1C(Cl)(Cl)Cl (configuration not stated)
inactive: [1] 42.5 µM | [2] 46.6 µM | [3] 23.8 µM | [4] 37.3 µM | [5] 42.1 µM | [6] 31.7 µM | [7] 58.2 µM | [8] 39 µM | [9] 26.1 µM | [10] 35.8 µM | [12] 34 µM | [13] 45.1 µM | [14] 84.7 µM | [15] 41.1 µM | [16] 39.5 µM | [17] 23.3 µM | [18] 17.1 µM | [19] 30.1 µM | [20] 25.5 µM

CCCC(O)c1cn(C(NC(=O)c2ccccc2)P(=O)(OCC)OCC)nn1 (configuration not stated)
inactive: [1] > 100 µM | [2] > 100 µM | [3] > 100 µM | [4] > 100 µM | [5] > 100 µM | [6] > 100 µM | [7] > 100 µM | [8] > 100 µM | [9] > 100 µM | [10] > 100 µM | [11] > 100 µM | [12] > 100 µM | [13] > 100 µM | [14] > 100 µM | [15] > 100 µM | [16] > 100 µM | [17] > 100 µM | [18] > 100 µM | [19] > 100 µM | [20] > 100 µM

C#CC1NC(=O)C1N(CC)CC (configuration not stated)
inactive: [1] > 100 µM | [2] 86.5 µM | [3] > 100 µM | [4] > 100 µM | [5] > 100 µM | [6] > 100 µM | [7] > 100 µM | [8] > 100 µM | [9] > 100 µM | [10] > 100 µM | [11] > 100 µM | [12] > 100 µM | [13] > 100 µM | [14] > 100 µM | [15] > 100 µM | [16] > 100 µM | [17] > 100 µM | [18] 14.6 µM | [19] > 100 µM | [20] > 100 µM

Fc1ccc(C(OCCN2CCN(CCCCl)CC2)c2ccc(F)cc2)cc1
inactive: [1] 24.9 µM | [2] 31 µM | [3] 18 µM | [4] 24.5 µM | [5] 28.9 µM | [6] 24.7 µM | [7] 18.4 µM | [8] 28.4 µM | [9] 20.7 µM | [10] 18.6 µM | [11] 23.7 µM | [12] 18.9 µM | [13] 24.2 µM | [14] 22.3 µM | [15] 46 µM | [16] 27.5 µM | [17] 18.7 µM | [19] 18.3 µM | [20] 17.1 µM

[O-][Cl+3]([O-])([O-])[O-].[O-][Cl+3]([O-])([O-])[O-].c1ccn2c(N3CCOCC3)[n+]3c4ccccc4[n+]4c(N5CCOCC5)n5ccccc5c4c3c2c1
inactive: [1] > 100 µM | [2] > 100 µM | [3] 34 µM | [4] 19 µM | [5] > 100 µM | [6] > 100 µM | [8] > 100 µM | [9] 63.5 µM | [10] > 100 µM | [11] > 100 µM | [12] > 100 µM | [13] > 100 µM | [14] > 100 µM | [15] > 100 µM | [16] 41.2 µM | [17] > 100 µM | [18] 28.5 µM | [19] 52.1 µM | [20] > 100 µM
